Reference: patent US4668674A, “(+)-6-chloro-5,10-dihy dro-5-[(1-methyl-4-piperidinyl)-acetyl]-11H-dibenzo[b,][1,4]diazepin-11-o ne, the isolation thereof and its use as a pharmaceutical material” (Dr. Karl Thomae GmbH, priority 1985, dated 1987)
One block for each molecule: values may come before it.

Columns and labels:
[1] = system: volume and total acid secretion; test: Effect on rats after ligature of the pylorus (gastric juice volume and total acid); assay type: in vivo, Male Wistar rats; conditions: rat, i.v.; for ED50 value: given immediately before pylorus ligature, 2 hours, 120 min
Procedure: Effect on rats after ligature of the pylorus
Male Wistar rats (weighing between 100 and 125 g) which had fasted for 24 hours but had free access to water was used. The rats were divided up into groups of 10 animals. The rats were anaesthetised with ether and the abdominal cavity was opened up by longitudinal cutting and the pylorus was tied off. Before ligature of the pylorus, the substances dissolved in saline solution were administered intravenously in metered doses (0.1 ml/100 g of body weight), the intravenous administration was carried out immediately before ligature of the pylorus; control animals were given only the saline solution. Two hours after the ligature the animals were killed and the stomachs were carefully removed. The stomach contents were collected and centrifuged for 15 minutes at 4000 rpm, then the supernatant was separated off in order to determine the volume of gastric juices. Using a pH measuring apparatus (I.T.T. Radiometer PHM 62) the acidity was measured by titration to pH 7 of 1 ml samples of the gastric juices.
The total acid was calculated from the product of the measured volume and acidity (microequivalent.ml) and expressed as microequivalents over 2 or 4 hours. The data obtained from the individual pretreated rats were compared with the average values obtained from the control groups and expressed as the percentage deviation. The percentage values were transformed into probits and subjected to linear regression analysis in order to determine the ED50 values for volume and total acid secretion, whilst observing 95% confidence limits.

Racemisation Test = assay type: physicochemical
[2] = system: secretion of gastric acid; test: Anti-ulcerative effect, inhibition of gastric acid secretion and effect on other gastro-intestinal diseases (general statement); assay type: in vivo; conditions: for physiological/biological effectiveness: statement in words
[3] = ambient temperature; Arzneim.-Forsch./Drug Res. 34(II), 8, 849-859 (1984); cited from earlier work
[4] = pH 1 to 9, water, glycol, melt, up to 150° C., fifteen minutes

formation of (-) enantiomer (HPLC) (Racemisation Test; [4]): no (-) enantiomer had formed | optical rotation on heating (Racemisation Test; [4]): remained constant | racemisation (Racemisation Test; [4]): no racemisation
SMILES: CN1CCC(CC(=O)N2c3ccccc3C(=O)Nc3cccc(Cl)c32)CC1 [(+) form, (+)-6-Chloro-5,10-dihydro-5-[(1-methyl-4-piperidinyl)-acetyl]-11H-dibenzo[b,e][1,4]diazepin-11-one]
ED50 value [1]: 0.18 mg/kg | activity in the pylorus ligature experiment ([1]; conclusion in words): the form which carries the activity | dosage needed to achieve the same results, relative to the mixture of enantiomers ([2]; compared with the mixture of enantiomers): approximately only half the dosage | effect on various other diseases of the gastro-intestinal tract ([2]; particularly low bowel distress symptoms): favourable effect on various other diseases of the gastro-intestinal tract | physiological/biological effectiveness [2]: physiologically highly effective | physiological/biological effectiveness ([2]; listed as Ia): biologically effective form | anti-ulcerative effect ([2]; unlike the (-) form): Powerful anti-ulcerative effect | effect on the secretion of gastric acid ([2]; unlike the (-) form): inhibitory effect on the secretion of gastric acid

SMILES: CN1CCN(CC(=O)N2c3ccccc3C(=O)Nc3cccnc32)CC1 [pirenzepine]
interconversion of enantiomeric forms [3]: rapidly interconvert

stability of enantiomeric forms (Racemisation Test; ambient temperature): stable at ambient temperature
SMILES: CN1CCC(CC(=O)N2c3ccccc3C(=O)Nc3cccc(Cl)c32)CC1 [formula I, 6-chloro-5,10-dihydro-5-[(1-methyl-4-piperidinyl)-acetyl]-11H-dibenzo[b,e][1,4]diazepin-11-one]

SMILES: CN1CCC(CC(=O)N2c3ccccc3C(=O)Nc3cccc(Cl)c32)CC1 [(-) form]
deviation from the average values of untreated control groups ([1]; 3 mg/kg): 1.6% | ED50 value [1]: > 3 mg/kg | quantity required to achieve the same results ([2]; (-) form, to achieve the same results): at least 50 times
